Counter-ions that a name gives are not always drawn.
The compounds below were run on Compound 48/80 induced Lethality (assay: Protection of Rats from Compound 48/80 induced Lethality). Settings: Rattus norvegicus, protection from Compound 48/80 induced lethality, read-out: ED50.
Format: in vivo

Compound	ED50 [mg/kg]
Cl.Cl.NC(=O)c1nc2n(c1C(N)=O)CCc1ccccc1C21CCNCC1.O [Compound 53, 6,11-dihydrospiro[5H-imidazo[2,1-b][3]benzazepine-11,4′-piperidine]-2,3-dicarboxamide dihydrochloride monohydrate]	0.31
C1=Cn2ccnc2C2(CCNCC2)c2ccsc21 [Compound 56a, spiro[10H-imidazo[1,2-a]thieno[3,2-d]azepine-10,4′-piperidine]]	2.5
CCOC(=O)C(CN1CCC2(CC1)c1ccccc1CCn1c(C(N)=O)cnc12)c1ccccc1 (stereo not drawn) [Compound 64, ethyl 3-(aminocarbonyl)-6,11-dihydro-α-phenylspiro[5H-imidazo-[2,1-b][3]benzazepine-11,4′-piperidine]-1′-propanoate monohydrochloride]	0.31
Clc1cnc2n1CCc1ccccc1C21CCNCC1.O=C(O)/C=C/C(=O)O [Compound 20, 3-chloro-6,11-dihydrospiro[5H-imidazo[2,1-b][3]benzazepine-11,4′-piperidine] (E)-2-butenedioate (1:1)]	0.31
CN1CCC2(CC1)c1ccccc1CCn1c(C(N)=O)cnc12.O [Compound 80, 6,11-dihydro-1′-methylspiro[5H-imidazo[2,1-b][3]benzazepine-11,4′-piperidine]-3-carboxamide monohydrate]	0.63
Cl.Cl.NC(=O)c1cnc2n1CCc1ccccc1C21CCNCC1 [Compound 17, 5,6-dihydrospiro[11H-imidazo[2,1-b][3]-benzazepine-11,4′-piperidine]-3-carboxamide dihydrochloride]	0.04

Same assay, conditions: protection from Compound 48/80 induced lethality

Compound	ED50 [mg/kg]
CN1CCC2(CC1)c1ccccc1CCn1ccnc12.O=S(=O)(O)NC1CCCCC1.O=S(=O)(O)NC1CCCCC1 [Compound 1, 6,11-dihydro-1′-methylspiro[5H-imidazo[2,1-b][3]benzazepine-11,4′-piperidine]cyclohexylsulfamate(1:2)]	2.5
NC(=O)c1cnc2n1CCc1ccccc1C21CCN(CCO)CC1 [Compound 62, 6,11-dihydro-1′-(2-hydroxyetehyl)spiro[5H-imidazo[2,1-b][3]-benzazepine-11,4′-piperidine]-3-carboxamide]	0.63
COCc1cnc2n1CCc1ccccc1C21CCNCC1.O=C(O)/C=C/C(=O)O [Compound 58, 6,11-dihydro-3-(methoxymethyl)spiro[5H-imidazo[2,1-b][3]benzazepine-11,4′-piperidine]. (E)-2-butenedioate (1:1)]	2.5
5,6-dihydrospiro[11H-imidazo[2,1-b][3]benzazepine-11,4′-piperidine]-3-methanol (E)-2-butenedioic acid salt (2:1) [Compound 18a]	0.08
CCCCN1CCC2(CC1)c1ccccc1CCn1ccnc12.CCCCN1CCC2(CC1)c1ccccc1CCn1ccnc12.Cl.Cl.Cl.Cl.O [Compound 3, 1′-butyl-5,6-dihydrospiro[imidazo[2,1-b][3]-benzazepine-11-[11H],4′-piperidine]dihydrochloride.hemihydrate]	2.5
3-(aminocarbonyl)-6,11-dihydrospiro[5H-imidazo[2,1-b][3]-benzazepine-11,4′-piperidine]-1′-carboxylate [Compound 79]	0.04
